# Reference: patent US20240368120A1 (Terns Pharmaceuticals, Inc., priority 2023, published 2024)
# Biological target: T1, human GLP-1R receptor (Homo sapiens, UniProt P43220)
# T1 construct: expressed in transfected cells
# Assay: GLP-1R low expression cell assay (cAMP TR-FRET, CHO-K1_hGLP-1Rlow_clone10 cells)
# Format: cell-based
# Conditions: for EC50: cAMP TR-FRET, 30 min at 25° C.; for Emax: maximum activation relative to control GLP-1 peptide agonist
# Protocol: Stable cell lines expressing high and low GLP-1R surface expression were generated in CHO-K1 cells transfected (Fugene 6) with a puromycin selectable DNA plasmid encoding human GLP-1R receptor (accession number: NM_002062.5) under control of an EF1A promoter. Transfected cells were seeded into 24-well plates (9,000 cells/well) containing complete medium and incubated in a humidified incubator at 37° C. with 5% carbon dioxide. After overnight incubation, medium was replaced with complete medium supplemented with puromycin (6 μg/mL) and refreshed every 2-3 days to select for stably transfected cells. Individual pools of selected cells were expanded prior to analysis for responsiveness to GLP-1 control peptide using a TR-FRET assay to detect cAMP (LANCE Ultra CAMP Assay, Perkin Elmer). Briefly, cells were collected in Versene solution, plated in 384-well plates (1,000 cells/well) and combined with serially diluted GLP-IR control peptide (10 nL) using an acoustic dispenser (ECHO). Plates were incubated for 30 minutes at 25° C. prior to the addition of EU-CAMP tracer (5 μL) and Ulight-anti-CAMP (5 μL) reagents to each well, followed by 15 minutes incubation at 25° C. TR-FRET signal was detected using an En Vision Multimode Plate Reader (excitation=320 nm; emission=615 and 655 nm). Dose-response curves were used to generate EC50 values as a measure of responsiveness to the GLP-IR control peptide. Selected cell lines were monitored for responsiveness over multiple passages to ensure stability. […] Briefly, GLP-IR expression was analyzed by flow cytometry using a fluorescein-labeled Exendin-4 peptide fluorescent probe (FLEX). Cells were harvested in Versene solution and washed 3-times with PBS+0.5% BSA before incubation with FLEX reagent (10 μM) for 2 hours at room temperature. After incubation, cells were washed 3-times in PBS+0.5% BSA before final resuspension in PBS prior to analysis by flow cytometry to measure FLEX mean fluorescence intensity (MFI) as a measure of GLP-IR expression on the cell surface.
# For compound testing in the CHO-K1_hGLP-IRlow_clone10 cell line, cells were seeded in 384-well plates (1,000 cells/well). Test compounds were serially diluted in DMSO (10-point, 3-fold dilution), added to wells using an ECHO dispenser (10 nL/well) and plates were centrifuged for 1 min and agitated for 2 min at room temperature prior to 30-minute incubation at 25° C. After incubation, Eu-CAMP (5 μL) and Ulight-anti-cAMP (5 μL) reagents were added to each well, followed by centrifugation for 1 minute, agitation for 2 minutes at room temperature, and final incubation of the plates at 25° C. for 15 minutes. Plates were read using an EnVision microplate reader (excitation=320 nm; emission=615 and 655 nm). Dose-response curves were generated from duplicate wells based on percent activation calculated relative to a control GLP-1 peptide agonist that was run in parallel. EC50 values were determined by fitting percent activation as a function of compound concentration using the Hill equation (XLfit).
# The compounds tested were compound samples prepared according to the General Procedures described in the Examples section.
# T1 sequence (P43220 24-463): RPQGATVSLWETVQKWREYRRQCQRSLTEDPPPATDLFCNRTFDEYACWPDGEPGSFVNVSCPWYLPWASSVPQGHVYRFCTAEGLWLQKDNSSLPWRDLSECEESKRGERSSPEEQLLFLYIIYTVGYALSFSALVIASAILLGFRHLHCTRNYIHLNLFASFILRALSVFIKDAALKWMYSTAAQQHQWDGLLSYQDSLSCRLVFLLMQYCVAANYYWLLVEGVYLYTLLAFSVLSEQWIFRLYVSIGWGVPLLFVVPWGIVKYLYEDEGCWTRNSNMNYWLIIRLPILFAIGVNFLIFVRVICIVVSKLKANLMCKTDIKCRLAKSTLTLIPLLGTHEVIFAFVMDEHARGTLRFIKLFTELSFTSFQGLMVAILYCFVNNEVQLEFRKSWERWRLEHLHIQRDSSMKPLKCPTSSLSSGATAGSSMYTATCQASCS
EC50,Emax,SMILES
< 0.01 µM,> 85%,"Cn1c(Cc2cc(F)c(-c3cccc(OCc4ccc(Cl)cc4F)n3)cc2F)nc2c(OC(F)F)cc(C(=O)O)cc21 [Compound 197, 2-(4-(6-((4-Chloro-2-fluorobenzyl)oxy)pyridin-2-yl)-2,5-difluorobenzyl)-4-(difluoromethoxy)-1-methyl-1H-benzo[d]imidazole-6-carboxylic acid]"
> 1 µM,50 to 85%,"COc1cc(C(=O)O)cc2c1nc([C@@H](C)N1CCC(c3cccc(OCc4ccc(C#N)cc4F)n3)CC1)n2C [Compound 103, (R)-2-(1-(4-(6-((4-Cyano-2-fluorobenzyl)oxy)pyridin-2-yl)piperidin-1-yl)ethyl)-4-methoxy-1-methyl-1H-benzo[d]imidazole-6-carboxylic acid]"
0.01 to 0.1 µM,> 85%,"C[C@@H](F)Oc1cc(C(=O)O)cc2c1nc(CN1CCC(c3cccc(OCc4ccc(C#N)cc4F)n3)CC1)n2C [Compound 312, (R)-2-((4-(6-((4-Cyano-2-fluorobenzyl)oxy)pyridin-2-yl)piperidin-1-yl)methyl)-4-(1-fluoroethoxy)-1-methyl-1H-benzo[d]imidazole-6-carboxylic acid]"
> 1 µM,25 to 50%,"COc1cc(C(=O)O)cc2c1nc(CN1CCC(c3cccc4c3O[C@@H](c3ccc(C#N)cc3F)CO4)CC1)n2C [Compound 314, (S)-2-((4-(3-(4-Cyano-2-fluorophenyl)-2,3-dihydrobenzo[b][1,4]dioxin-5-yl)piperidin-1-yl)methyl)-4-methoxy-1-methyl-1H-benzo[d]imidazole-6-carboxylic acid]"
0.01 to 0.1 µM,> 85%,"COc1cc(C(=O)O)c(F)c2c1nc(CN1CCC(c3ccc(F)c(OCc4ccc(Cl)cc4F)c3)CC1)n2C [Compound 340, 2-((4-(3-((4-Chloro-2-fluorobenzyl)oxy)-4-fluorophenyl)piperidin-1-yl)methyl)-7-fluoro-4-methoxy-1-methyl-1H-benzo[d]imidazole-6-carboxylic acid]"
0.01 to 0.1 µM,> 85%,"Cn1c(CN2CCC(c3nccc(OCc4ccc(Cl)cc4F)n3)CC2)nc2c(OC(F)F)cc(C(=O)O)cc21 [Compound 168, 2-((4-(4-((4-Chloro-2-fluorobenzyl)oxy)pyrimidin-2-yl)piperidin-1-yl)methyl)-4-(difluoromethoxy)-1-methyl-1H-benzo[d]imidazole-6-carboxylic acid]"
> 1 µM,< 25%,"COc1c(C(=O)O)ccc2c1nc(CN1CCC(c3cccc(OCc4ccc(Cl)cc4F)n3)CC1)n2C [Compound 187, 2-((4-(6-((4-Chloro-2-fluorobenzyl)oxy)pyridin-2-yl)piperidin-1-yl)methyl)-4-methoxy-1-methyl-1H-benzo[d]imidazole-5-carboxylic acid]"
0.01 to 0.1 µM,> 85%,"Cn1c(CN2CCC(c3cccc(OCc4ccc(Cl)c5c4OCC5)n3)CC2)nc2c(OC(F)F)cc(C(=O)O)cc21 [Compound 331, 2-((4-(6-((4-Chloro-2,3-dihydrobenzofuran-7-yl)methoxy)pyridin-2-yl)piperidin-1-yl)methyl)-4-(difluoromethoxy)-1-methyl-1H-benzo[d]imidazole-6-carboxylic acid]"
0.01 to 0.1 µM,> 85%,"CC(CO)Oc1cc(C(=O)O)cc2c1nc(CN1CCC(c3cccc(OCc4ccc(Cl)cc4F)n3)CC1)n2C (centres unmarked) [Compound 320, 2-((4-(6-((4-Chloro-2-fluorobenzyl)oxy)pyridin-2-yl)piperidin-1-yl)methyl)-4-((1-hydroxypropan-2-yl)oxy)-1-methyl-1H-benzo[d]imidazole-6-carboxylic acid]"
0.1 to 1 µM,50 to 85%,"Cn1c(CN2CCC(c3cccc(OCc4ccc(Cl)cc4F)n3)CC2)nc2c(OC(F)F)cc(-c3cc(O)no3)cc21 [Compound 316, 5-(2-((4-(6-((4-Chloro-2-fluorobenzyl)oxy)pyridin-2-yl)piperidin-1-yl)methyl)-4-(difluoromethoxy)-1-methyl-1H-benzo[d]imidazol-6-yl) isoxazol-3-ol]"
